Measurements published in patent US9238656B2, “Imidazo[4,5-b]pyridine derivatives as ALK and JAK modulators for the treatment of proliferative disorders” (priority 2012, dated 2016).
Where a name gives a salt, the structure may show the parent alone. Read-outs that look alike come from different tables or passages of the source.

Tests used:
[1] = target: baculovirus-expressed JAK2 kinase (Homo sapiens, UniProt O60674); experiment: biochemical; conditions: read-out: JAK2 Potency
Description: Compounds were tested for their ability to inhibit the kinase activity of baculovirus-expressed JAK2 kinase using the time-resolved fluorescence (TRF) detection system. […] The plates were coated with 100 μL/well of 10 μg/mL Neutravidin (Pierce #31000, Rockford, Ill.) in TBS at 37° C. for 2 h, followed by 100 μL/well of 1 μg/mL 15-mer peptide substrate (biotinyl-amino-hexanoyl-[…]-amide, Infinity Biotech Research and Resource, Aston, Pa.) at 37° C. for 1 h. […] Enzyme (15 ng/mL JAK2) was added and the reaction was allowed to proceed at room temperature for 20 min. […] Inhibition data were analyzed using ActivityBase (IDBS, Guilford, UK). IC50 values were calculated by plotting percent inhibition versus log10 of the concentration of compound and fitting to the nonlinear regression sigmoidal dose-response (variable slope) equation in XLFit (IDBS, Guilford, UK).

[2] = target: baculovirus-expressed ALK (Homo sapiens, UniProt Q9UM73); experiment: ALK kinase inhibition, TRF/ELISA; type: biochemical; conditions: read-out: ALK Potency
Description: Briefly, each 96-well plate was coated with 100 μL/well of 10 μg/mL substrate (GST-PLC-γ) in Tris-buffered saline (TBS). […] The reaction was initiated by adding enzyme (30 ng/mL ALK) and was allowed to proceed at 37° C. for 15 minutes. Detection of the phosphorylated product was performed by adding 100 μL/well of Eu-N1 labeled PT66 antibody (Perkin Elmer #AD0041). […] Data analysis was performed using ActivityBase (IDBS, Guilford, UK). IC50 values were calculated by plotting percent inhibition versus log10 of the concentration of compound and fitting to the nonlinear regression sigmoidal dose-response (variable slope) equation in XLFit (IDBS, Guilford, UK).

Sequence of baculovirus-expressed ALK (Q9UM73 19-1620): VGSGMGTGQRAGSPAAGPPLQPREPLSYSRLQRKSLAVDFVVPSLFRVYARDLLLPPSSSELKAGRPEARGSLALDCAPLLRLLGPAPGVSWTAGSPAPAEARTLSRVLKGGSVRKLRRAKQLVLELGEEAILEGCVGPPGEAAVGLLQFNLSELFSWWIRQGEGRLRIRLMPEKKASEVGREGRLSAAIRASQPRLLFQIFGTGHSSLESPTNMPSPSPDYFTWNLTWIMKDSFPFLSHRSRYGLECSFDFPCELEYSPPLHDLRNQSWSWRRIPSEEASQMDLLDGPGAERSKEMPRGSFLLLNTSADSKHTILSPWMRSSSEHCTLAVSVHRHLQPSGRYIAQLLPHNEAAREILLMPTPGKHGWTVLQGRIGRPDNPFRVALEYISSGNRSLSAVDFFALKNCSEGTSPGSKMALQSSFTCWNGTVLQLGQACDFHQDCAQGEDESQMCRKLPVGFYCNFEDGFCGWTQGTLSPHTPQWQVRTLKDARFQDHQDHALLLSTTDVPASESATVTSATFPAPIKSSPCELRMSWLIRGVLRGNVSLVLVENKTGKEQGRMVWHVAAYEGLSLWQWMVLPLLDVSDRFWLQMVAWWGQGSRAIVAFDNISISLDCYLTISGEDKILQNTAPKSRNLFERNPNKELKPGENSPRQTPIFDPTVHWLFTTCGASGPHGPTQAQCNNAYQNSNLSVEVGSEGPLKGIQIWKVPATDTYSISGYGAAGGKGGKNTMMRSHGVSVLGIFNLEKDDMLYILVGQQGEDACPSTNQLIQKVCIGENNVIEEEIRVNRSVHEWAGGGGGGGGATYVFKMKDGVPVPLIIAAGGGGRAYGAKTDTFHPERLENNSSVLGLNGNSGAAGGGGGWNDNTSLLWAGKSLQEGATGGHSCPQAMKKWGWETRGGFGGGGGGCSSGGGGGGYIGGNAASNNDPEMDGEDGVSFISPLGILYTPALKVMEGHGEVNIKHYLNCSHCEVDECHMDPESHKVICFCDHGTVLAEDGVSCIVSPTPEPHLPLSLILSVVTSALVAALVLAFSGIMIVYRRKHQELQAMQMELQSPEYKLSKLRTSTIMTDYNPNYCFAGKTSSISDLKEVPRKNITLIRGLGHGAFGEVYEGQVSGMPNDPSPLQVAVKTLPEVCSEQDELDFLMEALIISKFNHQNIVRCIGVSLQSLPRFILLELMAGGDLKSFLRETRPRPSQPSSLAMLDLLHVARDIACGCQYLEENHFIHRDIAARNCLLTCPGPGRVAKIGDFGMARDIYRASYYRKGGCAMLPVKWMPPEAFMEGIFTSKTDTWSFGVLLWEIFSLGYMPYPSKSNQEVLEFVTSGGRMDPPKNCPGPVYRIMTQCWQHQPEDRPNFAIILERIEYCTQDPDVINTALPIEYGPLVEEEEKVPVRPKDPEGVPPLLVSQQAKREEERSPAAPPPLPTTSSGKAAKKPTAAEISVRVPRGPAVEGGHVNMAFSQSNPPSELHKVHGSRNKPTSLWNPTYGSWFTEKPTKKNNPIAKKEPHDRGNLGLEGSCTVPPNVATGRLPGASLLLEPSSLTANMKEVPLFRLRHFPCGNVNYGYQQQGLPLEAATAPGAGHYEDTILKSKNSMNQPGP
Sequence of baculovirus-expressed JAK2 kinase (O60674 whole entry): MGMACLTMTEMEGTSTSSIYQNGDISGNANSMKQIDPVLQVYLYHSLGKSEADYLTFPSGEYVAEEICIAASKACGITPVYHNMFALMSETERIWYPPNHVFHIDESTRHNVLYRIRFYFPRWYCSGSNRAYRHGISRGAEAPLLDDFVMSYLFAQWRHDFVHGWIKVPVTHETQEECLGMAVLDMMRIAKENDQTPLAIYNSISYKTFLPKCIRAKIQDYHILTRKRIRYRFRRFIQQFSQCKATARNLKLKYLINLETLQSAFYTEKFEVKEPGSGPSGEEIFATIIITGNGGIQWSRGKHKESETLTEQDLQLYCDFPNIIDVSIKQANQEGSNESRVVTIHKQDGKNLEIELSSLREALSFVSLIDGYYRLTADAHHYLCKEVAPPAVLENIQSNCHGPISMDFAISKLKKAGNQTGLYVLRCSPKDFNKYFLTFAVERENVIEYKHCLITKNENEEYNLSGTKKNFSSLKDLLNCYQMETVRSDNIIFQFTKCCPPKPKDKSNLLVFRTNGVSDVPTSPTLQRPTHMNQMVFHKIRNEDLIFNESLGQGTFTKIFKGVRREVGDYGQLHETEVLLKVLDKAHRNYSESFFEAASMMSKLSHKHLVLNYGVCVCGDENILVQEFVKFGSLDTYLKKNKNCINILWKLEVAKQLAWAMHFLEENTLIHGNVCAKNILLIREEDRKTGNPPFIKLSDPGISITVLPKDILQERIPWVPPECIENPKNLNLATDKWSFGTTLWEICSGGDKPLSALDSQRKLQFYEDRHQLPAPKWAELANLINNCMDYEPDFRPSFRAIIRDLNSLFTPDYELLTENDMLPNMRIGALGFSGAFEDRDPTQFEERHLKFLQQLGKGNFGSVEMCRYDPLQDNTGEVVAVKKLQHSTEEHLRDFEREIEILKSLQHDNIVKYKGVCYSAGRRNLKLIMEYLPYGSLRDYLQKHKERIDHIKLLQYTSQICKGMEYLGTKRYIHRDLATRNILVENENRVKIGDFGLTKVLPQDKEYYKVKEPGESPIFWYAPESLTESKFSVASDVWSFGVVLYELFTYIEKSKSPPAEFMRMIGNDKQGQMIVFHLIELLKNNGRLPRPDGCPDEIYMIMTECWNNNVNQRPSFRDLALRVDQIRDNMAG

| Compound | IC50 ([1]; 0.2 μM ATP) [nM] | IC50 [2] [nM] | IC50 [1] [nM] |
| --- | --- | --- | --- |
| COc1cc(N2CCOCC2)ccc1-c1nc2c(NC34CCC(C)(C(=O)C3)C4(C)C)c(Cl)cnc2[nH]1 (stereo not drawn) [Compound CC, 4-(6-chloro-2-(2-methoxy-4-morpholinophenyl)-3H-imidazo[4,5-b]pyridin-7-ylamino)-1,7,7-trimethylbicyclo[2.2.1]heptan-2-one] | 100 to 1000 | 100 to 1000 |  |
| NC(=O)[C@@H]1[C@H](Nc2c(Cl)cnc3[nH]c(-c4ccc(F)cc4)nc23)[C@H]2C=C[C@@H]1C2 [Compound CXXIX, (1S,2S,3R,4R)-3-[6-Chloro-2-(4-fluoro-phenyl)-3H-imidazo[4,5-b]pyridin-7-ylamino]-bicyclo[2.2.1]hept-5-ene-2-carboxylic acid amide] | < 100 | 100 to 1000 |  |
| C[C@@H](O)CN1CCC(n2cc(-c3nc4c(N[C@H]5[C@@H](C(N)=O)[C@@H]6C=C[C@H]5C6)c(Cl)cnc4[nH]3)cn2)CC1 [Compound LVIII, (1S,2S,3R,4R)-3-(6-Chloro-2-{1-[1-((R)-2-hydroxypropyl)-piperidin-4-yl]-1H-pyrazol-4-yl}-3H-imidazo[4,5-b]pyridine-7-ylamino)-bicyclo[2.2.1]hept-5-ene-2-carboxylic acid amide] | < 100 | < 100 |  |
| CC(C)NC(=O)[C@@H]1[C@H](Nc2c(Cl)cnc3[nH]c(-c4sc(N5CCCC5)nc4Cl)nc23)[C@H]2C=C[C@@H]1C2 [Compound CLXV, (1S,2S,3R,4R)-3-[6-Chloro-2-(4-chloro-2-pyrrolidin-1-yl-thiazol-5-yl)-3H-imidazo[4,5-b]pyridin-7-ylamino]-bicyclo[2.2.1]hept-5-ene-2-carboxylic acid isopropylamide] | 1000 to 10000 | 100 to 1000 |  |
| NC(=O)[C@@H]1[C@H](Nc2c(Cl)cnc3[nH]c(-c4ccccc4Cl)nc23)[C@H]2C=C[C@@H]1C2 [Compound CXLVIII, (1S,2S,3R,4R)-3-[6-Chloro-2-(2-chloro-phenyl)-3H-imidazo[4,5-b]pyridin-7-ylamino]-bicyclo[2.2.1]hept-5-ene-2-carboxylic acid amide] | < 100 | 100 to 1000 |  |
| Cc1nn(C)c(N2CCOCC2)c1-c1nc2c(N[C@H]3[C@@H](C(N)=O)[C@@H]4C=C[C@H]3C4)c(Cl)cnc2[nH]1 [Compound CXXII, (1S,2S,3R,4R)-3-[6-Chloro-2-(1,3-dimethyl-5-morpholin-4-yl-1H-pyrazol-4-yl)-3H-imidazo[4,5-b]pyridin-7-ylamino]-bicyclo[2.2.1]hept-5-ene-2-carboxylic acid amide] | 1000 to 10000 | 1000 to 10000 |  |
| NC(=O)[C@@H]1[C@H](Nc2c(Cl)cnc3[nH]c(-c4cccc(N5CCOCC5)c4)nc23)[C@H]2C=C[C@@H]1C2 [Compound VII, (1S,2S,3R,4R)-3-[6-Chloro-2-(3-morpholin-4-yl-phenyl)-3H-imidazo[4,5-b]pyridine-7-ylamino]-bicyclo[2.2.1]hept-5-ene-2-carboxylic acid amide] | < 100 |  |  |
| CN1CCN(c2ccc(-c3nc4c(N[C@H]5[C@@H](C(N)=O)[C@@H]6C=C[C@H]5C6)c(Cl)cnc4[nH]3)cc2)CC1 [Compound X, (1S,2S,3R,4R)-3-{6-Chloro-2-[4-(4-methyl-piperazin-1-yl)-phenyl]-3H-imidazo[4,5-b]pyridine-7-ylamino}-bicyclo[2.2.1]hept-5-ene-2-carboxylic acid amide trifluoroacetic acid salt] | < 100 |  |  |
| COc1cccc(-c2nc3c(N[C@H]4[C@@H](C(N)=O)[C@@H]5C=C[C@H]4C5)c(Cl)cnc3[nH]2)c1 [Compound V, (1S,2S,3R,4R)-3-[6-Chloro-2-(3-methoxy-phenyl)-3H-imidazo[4,5-b]pyridin-7-ylamino]-bicyclo[2.2.1]hept-5-ene-2-carboxylic acid amide] | < 100 |  |  |
| Cn1cc(-c2nc3c(N[C@H]4[C@@H](C(N)=O)[C@@H]5C=C[C@H]4C5)c(Cl)cnc3[nH]2)cn1 [Compound VIII, (1S,2S,3R,4R)-3-[6-Chloro-2-(1-methyl-1H-pyrazol-4-yl)-3H-imidazo[4,5-b]pyridine-7-ylamino]-bicyclo[2.2.1]hept-5-ene-2-carboxylic acid amide] | < 100 |  |  |
| NC(=O)[C@@H]1[C@H](Nc2c(Cl)cnc3[nH]c(-c4cnn(C5CCNCC5)c4)nc23)[C@H]2C=C[C@@H]1C2 [Compound LVII, (1S,2S,3R,4R)-3-[6-Chloro-2-(1-piperidin-4-yl-1H-pyrazol-4-yl)-3H-imidazo[4,5-b]pyridine-7-ylamino]-bicyclo[2.2.1]hept-5-ene-2-carboxylic acid amide] | < 100 |  |  |
| NC(=O)[C@@H]1[C@H](Nc2c(Cl)cnc3[nH]c(-c4ccc(N5CCOCC5)cc4)nc23)[C@H]2C=C[C@@H]1C2 [Compound IV, (1S,2S,3R,4R)-3-[6-Chloro-2-(4-morpholin-4-yl-phenyl)-3H-imidazo[4,5-b]pyridine-7-ylamino]-bicyclo[2.2.1]hept-5-ene-2-carboxylic acid amide] | < 100 |  |  |
| COc1ccc(-c2nc3c(N[C@H]4[C@@H](C(N)=O)[C@@H]5C=C[C@H]4C5)c(Cl)cnc3[nH]2)cc1 [Compound VI, (1S,2S,3R,4R)-3-[6-Chloro-2-(4-methoxy-phenyl)-3H-imidazo[4,5-b]pyridine-7-ylamino]-bicyclo[2.2.1]hept-5-ene-2-carboxylic acid amide] | < 100 |  |  |
| 4-{2-[7-((1R,2R,3S,4S)-3-Carbamoyl-bicyclo[2.2.1]hept-5-en-2-ylamino)-6-chloro-3H-imidazo[4,5-b]pyridine-2-yl}-5-methoxy-phenyl]-piperidinej-1-carboxylic acid tert-butyl ester [Compound XXIX] |  |  | 1000 to 10000 |
| COc1ccccc1-c1nc2c(N[C@H]3[C@@H](C(N)=O)[C@@H]4C=C[C@H]3C4)c(Cl)cnc2[nH]1 [Compound IX, (1S,2S,3R,4R)-3-[6-Chloro-2-(2-methoxy-phenyl)-3H-imidazo[4,5-b]pyridine-7-ylamino]-bicyclo[2.2.1]hept-5-ene-2-carboxylic acid amide] | < 100 |  |  |

The next lines start with results.

| IC50 ([1]; 0.2 μM ATP) [nM] | IC50 [2] [nM] | Compound | IC50 [1] [nM] |
| --- | --- | --- | --- |
| 100 to 1000 | 100 to 1000 | COc1ccc(-c2nc3c(N[C@H]4[C@@H](C(N)=O)[C@@H]5C=C[C@H]4C5)c(Cl)cnc3[nH]2)c(C2CCN(C[C@H](O)CO)CC2)c1 [Compound XXXIII] |  |
| < 100 | < 100 | NC(=O)[C@@H]1[C@H](Nc2c(Cl)cnc3[nH]c(-c4cccc(CN5CCOCC5)c4)nc23)[C@H]2C=C[C@@H]1C2 [Compound XVI, (1S,2S,3R,4R)-3-[6-Chloro-2-(3-morpholin-4-ylmethyl-phenyl)-3H-imidazo[4,5-b]pyridin-7-ylamino]-bicyclo[2.2.1]hept-5-ene-2-carboxylic acid amide trifluoroacetic acid salt] |  |
| < 100 |  | COc1cc(N2CCN(C)CC2)ccc1-c1nc2c(N[C@H]3[C@@H](C(N)=O)[C@@H]4C=C[C@H]3C4)c(Cl)cnc2[nH]1 [Compound XXI, (1S,2S,3R,4R)-3-{6-Chloro-2-[2-methoxy-4-(4-methyl-piperazin-1-yl)-phenyl]-3H-imidazo[4,5-b]pyridin-7-ylamino}-bicyclo[2.2.1]hept-5-ene-2-carboxylic acid amide trifluoroacetic acid salt] |  |
| < 100 |  | CN1CCN(c2ccc(-c3nc4c(N[C@@H]5[C@H](C(N)=O)[C@H]6C=C[C@@H]5C6)c(Cl)cnc4[nH]3)cc2)CC1 [Compound XXVI, (1R,2R,3S,4S)-3-{6-Chloro-2-[4-(4-methyl-piperazin-1-yl)-phenyl]-3H-imidazo[4,5-b]pyridine-7-ylamino}-bicyclo[2.2.1]hept-5-ene-2-carboxylic acid amide] |  |
| 100 to 1000 |  | COc1cc(N2CCN(C)CC2)ccc1-c1nc2c(N[C@@H]3[C@H](C(N)=O)[C@H]4C=C[C@@H]3C4)c(Cl)cnc2[nH]1 [Compound XXVIII, (1R,2R,3S,4S)-3-{6-Chloro-2-[2-methoxy-4-(4-methyl-piperazin-1-yl)-phenyl]-3H-imidazo[4,5-b]pyridin-7-ylamino}-bicyclo[2.2.1]hept-5-ene-2-carboxylic acid amide] |  |
| < 100 |  | COc1cc(N2CCC(N3CCN(C)CC3)CC2)ccc1-c1nc2c(N[C@H]3[C@@H](C(N)=O)[C@@H]4C=C[C@H]3C4)c(Cl)cnc2[nH]1 [Compound XXIII, (1S,2S,3R,4R)-3-(6-Chloro-2-{2-methoxy-4-[4-(4-methyl-piperazin-1-yl)-piperidin-1-yl]-phenyl}-3H-imidazo[4,5-b]pyridin-7-ylamino)-bicyclo[2.2.1]hept-5-ene-2-carboxylic acid amide] |  |
| 100 to 1000 |  | NC(=O)[C@H]1[C@@H](Nc2c(Cl)cnc3[nH]c(-c4cccc(N5CCOCC5)c4)nc23)[C@@H]2C=C[C@H]1C2 [Compound XXV, (1R,2R,3S,4S)-3-[6-Chloro-2-(3-morpholin-4-yl-phenyl)-3H-imidazo[4,5-b]pyridine-7-ylamino]-bicyclo[2.2.1]hept-5-ene-2-carboxylic acid amide] |  |
